Literature values as cited in patent US20180256534A1, “KETAMINE AND […] 450 INHIBITOR COMBINATIONS” (SEQUOIA PHARMACEUTICALS, INC., priority 2015, published 2018).

How the values were obtained:
[1] = system: patients with major depressive disorders

**Q.** With CNC1(c2ccccc2Cl)CCCCC1=O (centres unmarked) [ketamine] as the compound, how does the “onset of rapid antidepressant effect” value [1] read?
**A.** two

**Q.** What about the “serum concentration at which psychotomimetic symptoms appear” value of the same compound?
**A.** about 50 ng/ml
